Measurements taken from ChEMBL document CHEMBL2203030, “Synthesis, characterization, antidepressant and antioxidant activity of novel piperamides bearing piperidine and piperazine analogues” (Bioorg Med Chem Lett, 2012).
In brackets after ≈: the same amount, converted by molar mass.

Key:
[1] = molecular target: T1, Amine oxidase [flavin-containing] B (Mus musculus, UniProt Q8BW75); assay: Inhibition of MAOB in mouse brain mitochondrial fraction assessed as enzyme activity per mg of protein using beta-PEA substrate incubated for 20 mins by UV-spectrophotometry; type: tissue-based
T1 sequence (Q8BW75 whole entry): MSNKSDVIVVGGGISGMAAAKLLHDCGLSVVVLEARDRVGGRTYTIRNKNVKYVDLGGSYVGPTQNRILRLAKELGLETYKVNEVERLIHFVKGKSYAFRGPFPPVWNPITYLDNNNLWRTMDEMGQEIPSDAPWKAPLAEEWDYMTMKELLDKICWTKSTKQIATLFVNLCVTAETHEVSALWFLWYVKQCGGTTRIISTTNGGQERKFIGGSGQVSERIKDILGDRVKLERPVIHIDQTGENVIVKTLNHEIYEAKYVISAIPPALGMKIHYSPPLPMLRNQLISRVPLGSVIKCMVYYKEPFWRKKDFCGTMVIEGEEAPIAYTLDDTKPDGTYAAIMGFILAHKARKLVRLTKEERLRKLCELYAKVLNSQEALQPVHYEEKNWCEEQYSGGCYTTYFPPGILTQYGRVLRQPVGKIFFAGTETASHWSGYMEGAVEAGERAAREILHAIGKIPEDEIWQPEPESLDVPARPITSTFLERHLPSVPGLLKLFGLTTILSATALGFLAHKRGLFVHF

[2] = molecular target: T2, Amine oxidase [flavin-containing] A (Mus musculus, UniProt Q64133); assay: Inhibition of MAOA in mouse brain mitochondrial fraction assessed as enzyme activity per mg of protein using 5-HT substrate incubated for 20 mins by UV-spectrophotometry; type: tissue-based
T2 sequence (Q64133 whole entry): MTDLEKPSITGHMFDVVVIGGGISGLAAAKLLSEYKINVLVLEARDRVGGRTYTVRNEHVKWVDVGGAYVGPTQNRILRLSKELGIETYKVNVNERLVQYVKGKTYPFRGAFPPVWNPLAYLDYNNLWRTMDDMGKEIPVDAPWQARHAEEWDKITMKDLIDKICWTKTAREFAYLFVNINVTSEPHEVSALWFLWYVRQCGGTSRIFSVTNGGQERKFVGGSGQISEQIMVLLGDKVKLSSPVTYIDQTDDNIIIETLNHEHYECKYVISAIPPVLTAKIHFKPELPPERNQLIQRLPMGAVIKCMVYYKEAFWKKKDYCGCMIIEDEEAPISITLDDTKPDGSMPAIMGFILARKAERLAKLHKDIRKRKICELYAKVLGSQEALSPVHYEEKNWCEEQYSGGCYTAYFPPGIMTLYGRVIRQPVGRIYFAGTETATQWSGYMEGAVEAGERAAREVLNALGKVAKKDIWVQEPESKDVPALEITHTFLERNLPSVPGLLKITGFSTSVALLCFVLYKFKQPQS

[3] = system: Mus musculus; assay: Antidepressant activity in Swiss albino mouse assessed as mean immobility time measured during 6 mins period at 20 mg/kg, po administered 30 mins before test by tail suspension test (reference value: 185.7 +/- 5.33 secs); type: functional
[4] = system: Mus musculus; assay: Antidepressant activity in Swiss albino mouse assessed as mean immobility time measured during last 4 mins of single 6 mins test session at 20 mg/kg, po by forced swim test (reference value: 75.33 +/- 3.35 secs); type: functional
[5] = Antioxidant activity assessed as superoxide scavenging activity using xanthine-xanthine oxidase system by NBT dye reduction based assay; type: functional
[6] = system: Radical scavenging activity; assay: Antioxidant activity assessed as DPPH free radical scavenging activity by spectrophotometry; type: functional
[7] = system: Aspergillus flavus; assay: Antimicrobial activity against Aspergillus flavus NCIM 524 by broth dilution method; type: functional
[8] = system: Aspergillus flavus; assay: Antimicrobial activity against Aspergillus flavus NCIM 524 at 100 ug/mL incubated for 48 hrs by agar disc diffusion method; type: functional; conditions: NCIM 524, 48 h, read-out: IZ
[9] = system: Candida albicans; assay: Antimicrobial activity against Candida albicans NCIM 3471 by broth dilution method; type: functional
[10] = system: Candida albicans; assay: Antimicrobial activity against Candida albicans NCIM 3471 at 100 ug/mL incubated for 48 hrs by agar disc diffusion method; type: functional; conditions: NCIM 3471, 48 h, read-out: IZ
[11] = system: Pseudomonas aeruginosa; assay: Antimicrobial activity against Pseudomonas aeruginosa NCIM 5029 by broth dilution method; type: functional
[12] = system: Pseudomonas aeruginosa; assay: Antimicrobial activity against Pseudomonas aeruginosa NCIM 5029 at 100 ug/mL incubated for 24 hrs by agar disc diffusion method; type: functional; conditions: NCIM 5029, 24 h, read-out: IZ
[13] = system: Escherichia coli; assay: Antimicrobial activity against Escherichia coli NCIM 2574 by broth dilution method; type: functional
[14] = system: Escherichia coli; assay: Antimicrobial activity against Escherichia coli NCIM 2574 at 100 ug/mL incubated for 24 hrs by agar disc diffusion method; type: functional; conditions: NCIM 2574, 24 h, read-out: IZ
[15] = system: Bacillus subtilis; assay: Antimicrobial activity against Bacillus subtilis NCIM 2999 by broth dilution method; type: functional
[16] = system: Staphylococcus aureus; assay: Antimicrobial activity against Staphylococcus aureus NCIM 5021 by broth dilution method; type: functional
[17] = system: Staphylococcus aureus; assay: Antimicrobial activity against Staphylococcus aureus NCIM 5021 at 100 ug/mL incubated for 24 hrs by agar disc diffusion method; type: functional; conditions: NCIM 5021, 24 h, read-out: IZ
[18] = system: Bacillus subtilis; assay: Antimicrobial activity against Bacillus subtilis NCIM 2999 at 100 ug/mL incubated for 24 hrs by agar disc diffusion method; type: functional; conditions: NCIM 2999, 24 h, read-out: IZ

COc1cc(/C=C/C(=O)N2CCCC(O)C2)cc2c1OCO2 (stereo not given)
Activity [1]: 17.33 nmol
Activity [2]: 16.63 nmol
Time [3]: 84.2 s
Time [4]: 35.4 s
IC50 [5]: 16.9 µg/mL (≈ 55.3 µM)
IC50 [6]: 13.4 µg/mL (≈ 43.9 µM)
MIC [7]: > 100 µg/mL
zone of inhibition at 100 µg/mL [8]: 10 mm
MIC [9]: 100 µg/mL (≈ 328 µM)
zone of inhibition at 100 µg/mL [10]: 18 mm
MIC [11]: > 100 µg/mL
zone of inhibition at 100 µg/mL [12]: 12 mm
MIC [13]: > 100 µg/mL
zone of inhibition at 100 µg/mL [14]: 7 mm
MIC [15]: 62 µg/mL (≈ 203 µM)
MIC [16]: 50 µg/mL (≈ 164 µM)
zone of inhibition at 100 µg/mL [17]: 8 mm
zone of inhibition at 100 µg/mL [18]: 11 mm

COc1cc(/C=C/C(=O)N2C(C)CCCC2C)cc2c1OCO2 (stereo not given)
Time [3]: 77.33 s
Time [4]: 43.33 s
IC50 [5]: 15.8 µg/mL (≈ 49.8 µM)
IC50 [6]: 13.8 µg/mL (≈ 43.5 µM)
MIC [7]: 25 µg/mL (≈ 78.8 µM)
zone of inhibition at 100 µg/mL [8]: 15 mm
MIC [9]: 25 µg/mL (≈ 78.8 µM)
zone of inhibition at 100 µg/mL [10]: 12 mm
MIC [11]: 30 µg/mL (≈ 94.5 µM)
zone of inhibition at 100 µg/mL [12]: 11 mm
MIC [13]: 50 µg/mL (≈ 158 µM)
zone of inhibition at 100 µg/mL [14]: 10 mm
MIC [15]: 30 µg/mL (≈ 94.5 µM)
MIC [16]: 28 µg/mL (≈ 88.2 µM)
zone of inhibition at 100 µg/mL [17]: 11 mm
zone of inhibition at 100 µg/mL [18]: 12 mm

COc1cc(/C=C/C(=O)N2CCC(C)CC2)cc2c1OCO2
Time [3]: 104.9 s
Time [4]: 51.6 s
IC50 [5]: 19.8 µg/mL (≈ 65.3 µM)
IC50 [6]: 15.3 µg/mL (≈ 50.4 µM)
MIC [7]: 30 µg/mL (≈ 98.9 µM)
zone of inhibition at 100 µg/mL [8]: 12 mm
MIC [9]: 30 µg/mL (≈ 98.9 µM)
zone of inhibition at 100 µg/mL [10]: 10 mm
MIC [11]: 36 µg/mL (≈ 119 µM)
zone of inhibition at 100 µg/mL [12]: 9 mm
MIC [13]: 40 µg/mL (≈ 132 µM)
zone of inhibition at 100 µg/mL [14]: 10 mm
MIC [15]: 25 µg/mL (≈ 82.4 µM)
MIC [16]: 24 µg/mL (≈ 79.1 µM)
zone of inhibition at 100 µg/mL [17]: 12 mm
zone of inhibition at 100 µg/mL [18]: 10 mm

COc1cc(/C=C/C(=O)N2CCNCC2)cc2c1OCO2
Time [3]: 178 s
Time [4]: 71 s
IC50 [5]: 38.4 µg/mL (≈ 132 µM)
IC50 [6]: 20.1 µg/mL (≈ 69.2 µM)
MIC [7]: 15 µg/mL (≈ 51.7 µM)
zone of inhibition at 100 µg/mL [8]: 14 mm
MIC [9]: 25 µg/mL (≈ 86.1 µM)
zone of inhibition at 100 µg/mL [10]: 10 mm
MIC [11]: 25 µg/mL (≈ 86.1 µM)
zone of inhibition at 100 µg/mL [12]: 13 mm
MIC [13]: 20 µg/mL (≈ 68.9 µM)
zone of inhibition at 100 µg/mL [14]: 11 mm
MIC [15]: 50 µg/mL (≈ 172 µM)
MIC [16]: 30 µg/mL (≈ 103 µM)
zone of inhibition at 100 µg/mL [17]: 14 mm
zone of inhibition at 100 µg/mL [18]: 10 mm

COc1cc(/C=C/C(=O)N2CCN(C(C)=O)CC2)cc2c1OCO2
Time [3]: 116.2 s
Time [4]: 55.83 s
IC50 [5]: 21.9 µg/mL (≈ 65.9 µM)
IC50 [6]: 23.2 µg/mL (≈ 69.8 µM)
MIC [7]: 22 µg/mL (≈ 66.2 µM)
zone of inhibition at 100 µg/mL [8]: 10.4 mm
MIC [9]: 15 µg/mL (≈ 45.1 µM)
zone of inhibition at 100 µg/mL [10]: 11 mm
MIC [11]: 18.7 µg/mL (≈ 56.3 µM)
zone of inhibition at 100 µg/mL [12]: 14 mm
MIC [13]: 18 µg/mL (≈ 54.2 µM)
zone of inhibition at 100 µg/mL [14]: 12 mm
MIC [15]: 14 µg/mL (≈ 42.1 µM)
MIC [16]: 14 µg/mL (≈ 42.1 µM)
zone of inhibition at 100 µg/mL [17]: 11 mm
zone of inhibition at 100 µg/mL [18]: 16 mm

COc1ccccc1N1CCN(C(=O)/C=C/c2cc(OC)c3c(c2)OCO3)CC1
Time [3]: 124.2 s
Time [4]: 59.16 s
IC50 [5]: 19.4 µg/mL (≈ 48.9 µM)
IC50 [6]: 14.7 µg/mL (≈ 37.1 µM)
MIC [7]: 23 µg/mL (≈ 58 µM)
zone of inhibition at 100 µg/mL [8]: 13.6 mm
MIC [9]: 17 µg/mL (≈ 42.9 µM)
zone of inhibition at 100 µg/mL [10]: 14.1 mm
MIC [11]: 20 µg/mL (≈ 50.4 µM)
zone of inhibition at 100 µg/mL [12]: 11 mm
MIC [13]: 20 µg/mL (≈ 50.4 µM)
zone of inhibition at 100 µg/mL [14]: 9 mm
MIC [15]: 15 µg/mL (≈ 37.8 µM)
MIC [16]: 16.4 µg/mL (≈ 41.4 µM)
zone of inhibition at 100 µg/mL [17]: 14 mm
zone of inhibition at 100 µg/mL [18]: 16 mm

COc1cc(/C=C/C(=O)N2CCN(c3ccccc3)CC2)cc2c1OCO2
Time [3]: 143.5 s
Time [4]: 66.2 s
IC50 [5]: 55.3 µg/mL (≈ 151 µM)
IC50 [6]: 36.9 µg/mL (≈ 101 µM)
MIC [7]: 40 µg/mL (≈ 109 µM)
zone of inhibition at 100 µg/mL [8]: 11 mm
MIC [9]: 25 µg/mL (≈ 68.2 µM)
zone of inhibition at 100 µg/mL [10]: 13.7 mm
MIC [11]: 25 µg/mL (≈ 68.2 µM)
zone of inhibition at 100 µg/mL [12]: 13 mm
MIC [13]: 25 µg/mL (≈ 68.2 µM)
zone of inhibition at 100 µg/mL [14]: 10 mm
MIC [15]: 18 µg/mL (≈ 49.1 µM)
MIC [16]: 18.3 µg/mL (≈ 49.9 µM)
zone of inhibition at 100 µg/mL [17]: 12 mm
zone of inhibition at 100 µg/mL [18]: 14 mm

COc1cc(/C=C/C(=O)N2CCN(c3ccccn3)CC2)cc2c1OCO2
Time [3]: 148.5 s
Time [4]: 67.6 s
IC50 [5]: 18.5 µg/mL (≈ 50.4 µM)
IC50 [6]: 19.3 µg/mL (≈ 52.5 µM)
MIC [7]: 15 µg/mL (≈ 40.8 µM)
zone of inhibition at 100 µg/mL [8]: 10.9 mm
MIC [9]: 14 µg/mL (≈ 38.1 µM)
zone of inhibition at 100 µg/mL [10]: 11.4 mm
MIC [11]: 20 µg/mL (≈ 54.4 µM)
zone of inhibition at 100 µg/mL [12]: 17 mm
MIC [13]: 22 µg/mL (≈ 59.9 µM)
zone of inhibition at 100 µg/mL [14]: 11 mm
MIC [15]: 15.5 µg/mL (≈ 42.2 µM)
MIC [16]: 15.2 µg/mL (≈ 41.4 µM)
zone of inhibition at 100 µg/mL [17]: 14 mm
zone of inhibition at 100 µg/mL [18]: 12 mm

O=C1O[C@H]([C@@H](O)CO)C(O)=C1O [ASCORBIC ACID]
IC50 [6]: 12.6 µg/mL (≈ 71.5 µM)

C#CCN(C)CCCOc1ccc(Cl)cc1Cl [CLORGILINE]
Activity [1]: 18.16 nmol
Activity [2]: 17.05 nmol

CN(C)CCCN1c2ccccc2CCc2ccccc21 [IMIPRAMINE]
Time [3]: 79.5 s
Time [4]: 32.17 s
